From patent publication US10040788B2, “1,3,4-thiadiazole compounds and their use in treating cancer” (AstraZeneca AB, priority 2014, dated 2018)

Columns and labels:
[1] = system: NCI-H1703 xenograft; experiment: Mouse Xenograft Model, combination therapy (NCI-H1703); assay type: in vivo; settings: Male Scid mice, NCI-H1703 s.c.
Method: Male Scid mice were transplanted s.c. with human NSCLC NCI-H1703 cells (ATCC-CRL-5889) to determine the in-vivo anti-tumour activity of GLS inhibitors. 1×10^7 cells in 50% matrigel (BD Bioscience) were injected s.c. on the left flank of the animals.
(§1) Animals were randomised into groups of 10-12 when tumours reached a volume of ˜200-300 mm^3 and treatment commenced. […] Tumours were measured twice weekly by calliper and volume of tumours calculated using elliptical formula (π/6×width×width×length). Statistical significance was evaluated using a one tailed, t-test. Taxotere® (Sanofi) was formulated in a physiological saline. Example 2 was formulated in a 1% Polysorbate 80 and pH adjusted with 1M HCL to a final pH concentration of pH3.5. Data is presented as mean tumour volume with calculated mean standard error bars.

[2] = system: NCI-H3122 xenograft; experiment: Mouse Xenograft Model, monotherapy (NCI-H3122); assay type: in vivo; settings: Female Harlan Nude mice, NCI-H3122 s.c., 50 mg/kg once daily peroral for 17 days
Method: as §1, with “Female Harlan Nude mice were transplanted s.c. with human NSCLC NCI-H3122 cells to determine the in-vivo anti-tumour activity of GLS inhibitors. 5×10^6 cells in 50% matrigel (BD Bioscience) were injected s.c. on the left flank of the animals. Animals” for “Animals”, “10-15” for “10-12”, “t-test.” for “t-test. Taxotere® (Sanofi) was formulated in a physiological saline.”

[3] = system: NCI-H1703 cells; experiment: GLS Cell Proliferation Assay (NCI-H1703); assay type: cell-based, human; settings: Homo sapiens, 120 h; NCI-H1703 cells, 5 days incubation; geometric mean where repeated; read-out: Assay c) GLS Cell Proliferation Assay

CO[C@H](C(=O)Nc1nnc(N[C@@H]2CCN(c3cccnn3)C2)s1)c1ccccc1 [Example 2(a), (2S)-2-Methoxy-2-phenyl-N-[5-[[(3R)-1-pyridazin-3-ylpyrrolidin-3-yl]amino]-1,3,4-thiadiazol-2-yl]acetamide]
Tumour growth (mean tumour volume), FIG. 3 ([1]; 100 mg/kg once daily peroral for 16 days in combination with once weekly i.v. Taxotere, compared to Taxotere monotherapy): slight regression
Tumour growth (mean tumour volume), FIG. 3 ([1]; 100 mg/kg once daily peroral for 16 days, monotherapy): inhibition of growth in-vivo
Tumour growth (mean tumour volume), FIG. 2 [2]: inhibition of growth in-vivo
IC50 [3]: 4.85 nM
